From patent publication US5863913A, “Aromatic compound and pharmaceutical composition” (Kureha Chemical Industry Co., Ltd., priority 1996, dated 1999)

Assays:
[1] = Oral absorption (amount of compound in rat serum by HPLC, area under curve); assay type: in vivo, Sprague-Dawley female rats; details: single dosage 160 mg/kg in water, 0.5 to 24 hours, average of 3 rats
Method: Twelve-week-old Sprague-Dawley female rats (3 rats per group) were bred for acclimation for a week. Then, the compounds of the present invention and a reference substrate were dissolved in water, and orally administered to the rats in a single dosage (160 mg/kg). After 0.5 hour, 1 hour, 2 hours, 4 hours, 6 hours, 8 hours, and 24 hours, the amounts of each compound (ng) per 1 ml of serum were measured using HPLC. Curves were obtained from the relation between an elapsed time after administration and the amount of the compound in serum at each elapsed time, respectively, and an average of the areas under the curves was calculated.
As a reference substance, Compound No. 184 disclosed in Japanese Unexamined Patent Publication (Kokai) No. 8-48651 was used. Compound No. 184 corresponds to the compound of the formula (I) wherein R^1 =nBu, A=N, Z=C, R^2 =CO, R^3 =NC4 H8 O, R^4 =H, R^5 =Me, and R^6 =Me.

[2] = tested on: ICR female mice; assay: Acute toxicity, single oral dose in mice; details: mouse, in vivo
Method: The aromatic compounds of the formula (I) according to the present invention were orally administered to mice at the dose of 500 mg/kg, but no fatalities were observed over a period of one week.
Five-week-old ICR female mice (5 mice per group) were bred for acclimation for a week. Then, the compounds of the present invention were dissolved in water, and orally administered to the mice in a single dosage (500 mg/kg).

[3] = molecular target: T1, angiotensin II receptor subtype 1 (AT1) (Oryctolagus cuniculus, UniProt P34976); assay: Binding to receptors: angiotensin II receptor subtype 1 (AT1); parameters: species or system rabbits (adrenal glands); details: rabbit adrenal glands, tracer 3H-angiotensin II
T1 construct: receptor : from adrenal glands in rabbits; from tissue; host or cells: rabbit adrenal glands
T1 sequence (P34976 1-359): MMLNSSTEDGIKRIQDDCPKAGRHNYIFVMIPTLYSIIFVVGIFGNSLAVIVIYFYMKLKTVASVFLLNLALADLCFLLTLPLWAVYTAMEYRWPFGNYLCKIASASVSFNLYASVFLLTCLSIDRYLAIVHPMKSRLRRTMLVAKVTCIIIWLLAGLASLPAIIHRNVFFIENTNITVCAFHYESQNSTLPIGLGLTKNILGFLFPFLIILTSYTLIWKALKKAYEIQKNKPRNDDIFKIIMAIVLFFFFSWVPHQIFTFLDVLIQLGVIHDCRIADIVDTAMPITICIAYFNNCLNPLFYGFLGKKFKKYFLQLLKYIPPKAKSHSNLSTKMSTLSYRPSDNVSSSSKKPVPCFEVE
Method: In this Example, the affinity to the angiotensin II receptor subtype 1 or subtype 2 was evaluated by a binding assay in accordance with the method described in Biochem. Pharmacol., 33, 4057-4062 (1984).
Specifically, the measurement of the total binding in the presence of each drug was performed as follows:
A mixture (final volume=0.25 ml) of a drug in a given concentration (the drug was dissolved in DMSO, and diluted to a double volume with a buffer attached to a drug discovery system to prepare a sample for the assay; 0.025 ml), a tracer (0.025 ml), and receptors (0.2 ml) was incubated [in the case of the angiotensin II receptor subtype 1 (AT1), at room temperature for 3 hours, and in the case of the subtype 2 (AT2), at 37° C. for 1 hour]. Then, the reaction mixture was filtered with suction (GF/C filter was used in AT1, and GF/B filter was used in AT2). The filter papers after filtration with suction (the tracer bound to the receptors) were counted by a γ-well counter (ARC-500, Aloka). The non-specific bindings were measured by repeating the above method, except that a large excess amount of a displacer was added. The specific binding of the drug in the given concentration was calculated by subtracting the non-specific binding from the total binding, respectively.
receptor : from adrenal glands in rabbits
tracer : ^3 Hangiotensin II

[4] = tested on: kidney disease model rats; assay: Action to lower blood pressure in kidney disease model rats (tail cuff); assay type: in vivo, Sprague-Dawley female rats; details: systolic, average of 8 rats, 20 mg/kg with drinking water, two days after administration; control 210
Method: (§1) The compounds of the present invention and the reference substance were administered with drinking water to kidney disease model rats, and the action of lowering the blood pressure was observed. The kidney disease model rats were prepared by a ligature of branches of renal artery in accordance with a conventional method. Namely, the left hilum renalis of Sprague-Dawley female rats was exposed under anesthesia, and one of four secondary branches of the renal artery was left unligated, while the remaining three branches were ligated, respectively. After a week, the hilum renalis (artery, vein, and ureter) of the right kidney were further ligated to thereby prepare rats whose renal function was lowered to approximately 1/8 of the normal function. Each group consisted of eight rats. The drugs to be tested (20 mg/kg) were administered to each administering group, and only water was administered to a control group. Two days after the administration, the systolic blood pressure was measured by the tail cuff method using a blood pressure measuring apparatus (UR5000; Ueda).

[5] = tested on: kidney disease model rats; assay: Renal function indicatory value in kidney disease model rats; assay type: in vivo, Sprague-Dawley female rats; details: 20 mg/kg/day with drinking water, six weeks
Method: as §1, with “The” for “The compounds of the present invention and the reference substance were administered with drinking water to kidney disease model rats, and the action of lowering the blood pressure was observed. The”
The rats in each group were allowed to freely take up food. […] To the rats in the control group, only water was administered every day. After six weeks, 0.2 ml of blood was collected from the carotid artery of the rats under anesthesia, and centrifuged to obtain serum. Using 25 μl of the serum, the serum creatinine (Scr) was measured by a creatinine analytical instrument (Beckman). Using 10 μl of the serum, the blood urea nitrogen (BUN) was measured by a BUN analytical instrument (Beckman). The creatinine clearance was evaluated as follows:
After the serum creatinine measurement, rats were placed in urinary metabolic cages for 24 hours to collect urine. A urinary creatine concentration (Ucr) was measured by a creatinine analytical instrument, and a total volume of urination (Uvol) was also measured. The creatinine clearance (CCr) was calculated by the following formula: [formula]

[6] = tested on: kidney disease model rats; assay: Survival time of kidney diseased animals; assay type: in vivo, Sprague-Dawley female rats; details: 20 mg/kg/day with drinking water, observation period eight weeks (upper limit); control 5.0
Method: as §1
The kidney disease model rats were prepared as in Example 54. Twenty-two groups (8 rats per group) were prepared in a manner such that there was no major difference between the groups in the serum creatinine value and the blood urea nitrogen value indicating renal function. The rats in each group were allowed to freely take up food. […] To the rats in the control group, only water was administered every day. If kidney diseases are aggravated, the rat will die of uremia. Thus, the survival time was observed as a comprehensive indication of the improvement of the effect on the kidney diseases. The observation period was eight weeks. Thus if all rats survived, the average survival time is eight weeks, and is an upper limit.

Row | SMILES | AUC at 24 h [1] | Number of deaths/number of survivals [2] | inhibition at 100 µM [3] | Blood Pressure [4] | Creatinine clearance ([5]; 24 hours urine, control 0.22) | Creatinine ([5]; serum, control 2.0) | Blood urea nitrogen ([5]; serum, control 100) | Average survival time [6]
1 | CCCCC(=O)N(Cc1ccc(C(=O)O)cc1)c1cc(C(=O)N2CCN(CCC)CC2)ccc1N(C)C [Compound No. 11, 4-dimethylamino-3-N-[[(4-carboxyphenyl)methyl]valeramido]benzoic acid 4'-n-propylpiperazide] | 76000 ng·h/mL | 0/5 | 0% | 204 mmHg | 0.42 mL/min | 1.2 mg/dL | 62 mg/dL | 7.3 weeks
2 | CCCCC(=O)N(Cc1ccc(C(=O)O)cc1)c1cc(C(=O)N2CCOCC2)ccc1N(C)C [reference substance, 3-N-[[(4-carboxyphenyl)methyl]valeramido]-4-dimethylaminobenzoic acid morpholide, reference compound] | 622 ng·h/mL |  |  |  |  |  |  | 
